Entries after “also recorded” stand apart in the source; their conditions may differ. Like-named read-outs stand apart in the source and are kept apart here.
Legend:
N27 cells [1] = conditions: 30 hours; for protective effect in N27 cells: Example 5; for protective effect in N27 cells / neuroprotective effect on N27 cell survival / neuronal survival as compared to LPS alone / N27 cell survival (protective effect) vs LPS alone: LPS 1 μg/ml; for neuroprotective effect on N27 cell survival: Example 2.1; for neuronal survival as compared to LPS alone: Example 2.2; for effect of compound alone on the cells, survival, nitrite release or morphology: compound 1 μM without LPS
Description: The survival of the N27 cells was then measured using MTS Assay.
N27 (Rat Dopaminergic cells) and BV2 (Mice Glial Cells) cells were co-cultured in Corning HTS Transwell Plates in RPMI Complete media supplemented with 10% HI-FBS, N27 in the lower well of the 24 well plates and BV2 in the 0.4 μm porous permeable support inserted on top of the 24 well for 24 hours at 37° C., 5% CO2. BV2 cells were treated with 1 μg/ml LPS in the presence and absence of 10 μM of CCND-01, CCND-02, CCND-03 and CCND-04, and 10 mM of NAC for 30 hours at 37° C., 5% CO2. The survival of N27 cells was then measured by performing MTS Assay and taking readings at 490 nm after 30 mins of incubation.
MTS assay was performed to determine the percentage N27 survival.

ERRγ = biological target: T1, ERRγ (Homo sapiens, UniProt P62508); conditions: at concentrations below 10 μM; cited from earlier work
T1 sequence (P62508 1-458): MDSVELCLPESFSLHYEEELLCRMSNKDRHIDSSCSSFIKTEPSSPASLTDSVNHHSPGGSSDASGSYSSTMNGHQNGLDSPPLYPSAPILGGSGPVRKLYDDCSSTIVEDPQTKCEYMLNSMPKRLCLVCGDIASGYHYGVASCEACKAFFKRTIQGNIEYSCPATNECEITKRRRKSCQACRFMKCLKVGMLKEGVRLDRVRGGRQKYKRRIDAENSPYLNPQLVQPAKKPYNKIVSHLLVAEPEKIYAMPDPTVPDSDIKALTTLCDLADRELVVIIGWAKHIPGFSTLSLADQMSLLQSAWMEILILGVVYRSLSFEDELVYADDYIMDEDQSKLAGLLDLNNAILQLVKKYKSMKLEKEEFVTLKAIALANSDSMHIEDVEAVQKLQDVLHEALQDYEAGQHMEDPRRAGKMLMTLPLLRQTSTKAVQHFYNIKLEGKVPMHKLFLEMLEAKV

ERα = biological target: T2, ERα (Homo sapiens, UniProt P03372); conditions: at concentrations below 10 μM; cited from earlier work
T2 sequence (P03372 1-595): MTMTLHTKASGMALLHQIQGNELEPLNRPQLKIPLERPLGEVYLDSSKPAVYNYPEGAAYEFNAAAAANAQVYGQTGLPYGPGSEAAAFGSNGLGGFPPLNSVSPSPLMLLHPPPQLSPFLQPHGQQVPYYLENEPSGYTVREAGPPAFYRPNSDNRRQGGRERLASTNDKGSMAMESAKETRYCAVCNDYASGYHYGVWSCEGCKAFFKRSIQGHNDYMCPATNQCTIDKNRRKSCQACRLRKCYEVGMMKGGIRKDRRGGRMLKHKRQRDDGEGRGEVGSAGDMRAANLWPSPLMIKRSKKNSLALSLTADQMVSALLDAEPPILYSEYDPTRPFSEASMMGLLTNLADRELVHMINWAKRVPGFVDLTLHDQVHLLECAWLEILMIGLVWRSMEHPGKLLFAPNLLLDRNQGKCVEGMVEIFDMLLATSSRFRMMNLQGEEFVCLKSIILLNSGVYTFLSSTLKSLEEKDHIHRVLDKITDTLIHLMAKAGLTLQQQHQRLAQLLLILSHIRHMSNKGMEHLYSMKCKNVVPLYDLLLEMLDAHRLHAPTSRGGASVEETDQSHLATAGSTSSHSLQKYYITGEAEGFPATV

BV2 cells [2] = test: LPS induced nitrite release by BV2 in N27-BV2 co-culture (Griess assay); type: cell-based, mice; conditions: LPS 1 μg/ml, 30 hours
N27 cells [3] = test: Toxicity to N27 cells induced by conditioned media from LPS activated BV2 cells (MTS assay); type: cell-based, rat; conditions: Example 3, FIG. 3, LPS 1 μg/ml, 30 hours
BV2 cells [4] = test: LPS induced nitrite release in BV2 cells (Griess assay); type: cell-based, mice; conditions: Example 1; LPS 1 μg/ml, 48 hours, vs LPS alone
Description: The immortalized rat mesencephalic dopaminergic cells (N27 cells) were grown in RPMI 1640 medium containing 10% Fetal Bovine Serum (FBS), 2 mM L-glutamine, 50 U Penicillin and 50 μg/ml Streptomycin [22]. Mice microglial cells (BV2 cells) were grown in RPMI 1640 medium containing 10% Heat Inactivated Fetal Bovine Serum (HI-FBS). Cells were maintained in a humidified atmosphere of 5% CO2 at 37° C. until they were 60-70% confluent.
BV2 (Mice Glial Cells) cells were treated with LPS at a concentration of 1 μg/ml in the presence or absence of test compounds PD180970 or AGK-2 at a concentrating ranging from 0.1 nM-[…] and incubated for 48 hours at 37° C. at 5% CO2. Griess assay was used to measure nitrite released in order to investigate the anti-inflammatory potential of the compounds. Untreated BV2 cells was used as blank, 0.1% DMSO in media was used as vehicle. LPS (1 μg/ml) was used as control for nitrite release.

IL-6 = test: LPS induced IL-6 secretion by BV2 in N27-BV2 co-culture (Luminex multiplexing assay); type: cell-based, mice; conditions: Example 4.3; LPS 1 μg/ml, compound 1 μM, 30 hours
Description: (§1) Luminex multiplexing assay was performed to determine the concentration of IL-6 and MCP-1 released. LPS (1 μg/ml) was used as control for IL-6 release or MCP-1 release.

MCP-1 = test: LPS induced MCP-1 secretion by BV2 in N27-BV2 co-culture (Luminex multiplexing assay); type: cell-based, mice; conditions: Example 4.3; LPS 1 μg/ml, compound 1 μM, 30 hours
Description: as §1

HEK-Blue™ TLR4 cells = test: nF-κB induced SEAP activity in HEK-Blue TLR4 cells; type: cell-based; conditions: LPS 10 ng/ml, compound 1 nM-100 μM, 12 hours
Description: (§2) Hek-Blue TLR-2, TLR-3 and TLR-4 Cells were obtained from InvivoGen (San Diego, Calif.). Culture treatment and assay was performed as per the manufacturers recommended protocol. Cells were treated and incubated for 12 hours, followed by collection of OD values at 620 nm.
(§3) HEK-Blue™ TLR4 cells were treated with LPS and HEK-Blue™ TLR2 were treated with Pam3CSK4 at a concentration of 10 ng/ml for 12 hours in the presence or absence of compounds (PD180970 or AGK-2) at a range of 1 nM-100 μM, and assayed for SEAP activity. LPS ([…]) was used as control for SEAP activity. nF-κB induced SEAP activity was quantified using HEK-Blue™ Detection at 620 nm.

HEK-Blue™ TLR2 cells = test: nF-κB induced SEAP activity in HEK-Blue TLR2 cells; type: cell-based; conditions: Pam3CSK4 10 ng/ml, compound 1 nM-100 μM, 12 hours
Description: as §2, §3

N27 cells [5] = test: Hydrogen peroxide induced neurotoxicity in N27 cells (MTS assay); type: cell-based, rat; conditions: 75 μM hydrogen peroxide, compound 0.1 nM-10 μM, 8 hours
Description: Cells were co-treated with 75 μM H2O2 in the presence and absence of compounds for 8 hours. Treatments were made in complete RPMI medium containing 2% FBS.
N27 cells were treated with 75 μM hydrogen peroxide in the presence and absence of compounds PD180970 or AGK2 in a concentration range of 0.1 nM-10 μM for 8 hours in 96 well plates. MTS assay was used to check the cell viability in order to investigate the neuroprotective potential of the compounds. Cells with untreated media was used as blank, and cells with media containing 0.1% DMSO (vehicle or solvent for the compounds) was used as vehicle. Hydrogen peroxide (75 μM) treated N27 cells was used as control for.

N27 cells [6] = test: MPP+ induced neurotoxicity in N27 cells (MTS assay); type: cell-based, rat; conditions: 300 μM MPP+, compound 0.1 nM-10 μM, 24 hours
Description: Cells were co-treated with 300 μM MPP^+ in the presence and absence of compounds for 24 hours. Treatments were made in complete RPMI medium containing 2% FBS.
N27 cells were treated with 300 μM of MPP^+ in the presence and absence of compounds (PD180970 or AGK-2) in a concentration range of 0.1 nM-10 μM and incubated for 24 hours. MPP^+ (300 μM) treated N27 cells was used as control. MTS assay was used to check the cell viability in order to investigate the neuroprotective potential of the compounds. None of the compounds could rescue MPP^+ treated dopaminergic N27 cells.

Row | SMILES | protective effect in N27 cells (N27 cells [1]; compound 10 μM) | levels of nitrite released by LPS treated BV2 cells (BV2 cells [4]) | level of nitrite released by LPS induced BV2 cells (BV2 cells [2]; Example 2.2, compound 1 μM) | level of nitrite released by LPS induced BV2 cells (BV2 cells [2]; Example 4, compound 1 μM) | neuroprotective effect in N27 cells (N27 cells [3]; compound 10 μM) | level of IL-6 released by LPS induced BV2 cells (IL-6) | level of MCP-1 released by LPS induced BV2 cells (MCP-1) | nF-κB induced SEAP activity (HEK-Blue™ TLR4 cells) | nF-κB induced SEAP activity (HEK-Blue™ TLR2 cells) | neuroprotective effect on H2O2 induced toxicity (N27 cells [5]) | neuroprotective effect on MPP+ induced toxicity (N27 cells [6]) | neuroprotective effect on N27 cell survival (N27 cells [1]; compound 10 μM) | neuronal survival as compared to LPS alone (N27 cells [1]; compound 1 μM) | N27 cell survival (protective effect) vs LPS alone (N27 cells [1]; Example 4, compound 1 μM) | effect of compound alone on the cells, survival, nitrite release or morphology (N27 cells [1]; Example 4) | further results
1 | Cc1ccc(NC(=O)c2ccc(CN3CCN(C)CC3)cc2)cc1Nc1nccc(-c2cccnc2)n1 [Imatinib] | significant protective effect | – | – | – | – | – | – | – | – | – | – | – | – | – | – | –
2 | COc1cc(/C=C(\C#N)C(=O)Nc2nnc(C(F)(F)F)s2)ccc1OCc1ccc(C(F)(F)F)cc1C(F)(F)F [CCND-04] | – | – | – | – | – | – | – | – | – | – | – | – | – | – | – | antagonist activity on ERRγ (ERRγ): no significant antagonist activity; antagonist activity on ERα (ERα): no significant antagonist activity
3 | Cc1cn(-c2cc(NC(=O)c3ccc(C)c(Nc4nccc(-c5cccnc5)n4)c3)cc(C(F)(F)F)c2)cn1 [Nilotinib] | significant protective effect | – | – | – | – | – | – | – | – | – | – | – | – | – | – | –
4 | CC(=O)N[C@@H](CS)C(=O)O [NAC, N-acetylcysteine] | neuroprotective role | – | – | – | – | – | – | – | – | – | – | – | – | – | – | level of nitrite released by LPS induced BV2 cells (BV2 cells [2]; Example 2.2, NAC 10 mM): significant reduction in level of nitrite; neuroprotective effect in N27 cells (N27 cells [3]; NAC 1 mM): significant neuroprotective effect; neuroprotective effect on N27 cell survival (N27 cells [1]; NAC 10 mM): inhibit neuronal cell death; neuronal survival as compared to LPS alone (N27 cells [1]; NAC 10 mM): significant increase in neuronal survival; N27 cell survival (protective effect) vs LPS alone (N27 cells [1]; Example 4.1, NAC 10 μM): significant protective effect
5 | N#C/C(=C\c1ccc(-c2cc(Cl)ccc2Cl)o1)C(=O)Nc1cccc2ncccc12 [AGK-2] | significant protective effect | significant reduction in levels of nitrite | significant reduction in level of nitrite | significant decrease in nitrite level; also recorded: significant reduction in level of nitrite | significant neuroprotective effect | significant reduction in level of IL-6 | significant reduction in levels of IL-6 and MCP-1 | significant inhibitory effect | not in HEK-Blue™ TLR2 cells | no significant neuroprotective effect | no significant neuroprotective effect | significant neuroprotective effect | significant increase in neuronal survival | significant protective effect; also recorded: significant increase in neuronal survival | no effect | –
6 | Cc1cc(Nc2ncc3cc(-c4c(Cl)cccc4Cl)c(=O)n(C)c3n2)ccc1F [PD180970] | significant protective effect | significant reduction in levels of nitrite | significant reduction in level of nitrite | significant decrease in nitrite level; also recorded: significant reduction in level of nitrite | significant neuroprotective effect | significant reduction in level of IL-6 | significant reduction in levels of IL-6 and MCP-1 | significant inhibitory effect | not in HEK-Blue™ TLR2 cells | no significant neuroprotective effect | no significant neuroprotective effect | significant neuroprotective effect | significant increase in neuronal survival | significant protective effect; also recorded: significant increase in neuronal survival | no effect | –

Source: US11324747B2, “Methods and compositions for managing neuroinflammation and neurodegeneration” (CENTRE FOR CELLULAR AND MOLECULAR PLATFORMS, priority 2016, dated 2022)
